Tests used:
HCMV [1] = assay: HCMV plaque (focus) reduction assay; assay type: cell-based; conditions: Human betaherpesvirus 5; Table 1; HFF cells; read-out: 50% Inhibitory Concentration HCMV Plaque
From the text: (§1) The 148 strain of HSV-1 was used in most experiments and was provided by Dr. T. W. Schafer of Schering corporation. The HF strain of HSV-1 was used in selected experiments and was obtained from Dr. G. H. Cohen, University of Pennsylvania. The Towne strain, plaque-purified isolate Po, of HCMV was a gift of Dr. Mark Stinski, University of Iowa.
(§2) HCMV was titered in 24-well cluster dishes which were planted to contain 5×10^4 cells/well, grown as described above. When the cells were 70 to 80% confluent, 0.2 ml of the virus suspension was added per wall and adsorbed as described above. At least three ten-fold dilutions of each preparation were used. Following virus adsorption, the cell sheets were overlayed with 0.5% methocel (4000 CPS) in maintenance medium [MEM(E) with 1.1 gm/liter NaHCO3, 100 units/ml penicillin G, 100 μg/ml streptomycin, and 5% fetal bovine serum]. The cultures were incubated in a humidified atmosphere of 4% CO2 -96% air. Viral foci were visible 5 to 7 days after infection using at least 10-fold magnification. Cells were fixed and stained by a 10-minute exposure to a 0.1% solution of crystal violet in 20% methanol 7 to 12 days after infection. Microscopic foci were enumerated at 20-fold magnification using a Nikon Profile Projector.
(§3) The effect of compounds of the replication of HCMV has been measured using both a plaque (focus) reduction assay and a titer (yield) reduction assay. For the former, HFF cells in 24-well culture dishes were infected with approximately 50 p.f.u. of HCMV per well using the procedures detailed above. Compounds dissolved in growth medium were added in three to six selected concentrations to triplicate wells following virus adsorption. Following incubation at 37° C. for 7 to 10 days, cell sheets were fixed, stained and microscopic foci were enumerated as described above. Drug effects were calculated as a percentage of reduction in number of foci in the presence of each drug concentration compared to the number observed in the absence of drug. DHPG (ganciclovir) was used as a positive control in all experiments.
(§4) Dose-response relationships were used to compare drug effects. These were constructed by linearly regressing the percent inhibition of parameters derived in the preceding sections against log drug concentrations. The 50% inhibitory (I50) concentrations were calculated from the regression lines using the methods described by Goldstein. See Goldstein, A., Biostatistics: An Introductory Text, MacMillan, N.Y., 1964, pp. 156-161. Along with the I50 concentration for visual cytotoxicity, the averaged I50 concentrations are compared to I50 concentrations for inhibition for HCMV or HSV-1 replication. Compounds for which the ratio of cytotoxicity I50 concentrations to antiviral I50 concentrations (in vitro therapeutic index) were greater than 10, were considered for further study.

HCMV [2] = assay: HCMV titer (yield) reduction assay; assay type: cell-based; conditions: Human betaherpesvirus 5; for IC90: Table 1, I90, HFF cells, read-out: HCMV Yield, 90% inhibitory concentration (I90)
From the text: as §1, §2
(§5) For titer reduction analysis, HFF cells were planted as described above in 24-well cluster dishes or in 25 cm^2 flasks. When monolayers were approximately 70% confluent, HCMV was added at a m.o.i. of 0.5 p.f.u. per cell and adsorbed as detailed above. Compounds dissolved in growth medium were added in one or one-half logarithm10 dilutions and incubation continued at 37° C. After 7 to 10 days of incubation, culture dishes or flasks were frozen at […] For titer determination, cells were thawed and then subjected to two more cycles of freezing and thawing at 37° C. Serial, one-logarithm10 dilutions of the final suspension were prepared and inoculated onto new cultures of HFF cells. Titer determination was as detailed above in part (1) (b).
as §4

HSV-1 = HSV-1 plaque reduction assay, strain S148; assay type: cell-based, herpes simplex virus type 1 (strain S148) in BSC-1 cells; conditions: Human alphaherpesvirus 1; Table 1; strain S148; BSC-1 cells; read-out: 50% Inhibitory Concentration HSV-1 Plaque
From the text: as §1
HSV-1 was titered using monolayer cultures of BSC-1 cells. Cells were planted at 3×10^5 cells/well using 6-well cluster dishes. MEM(E) supplemented with 10% fetal bovine serum was employed as medium. After 22-24 hours, cells were 90% confluent and were inoculated in triplicate using at least three ten-fold dilutions with 0.2 ml of the virus suspension to be assayed and incubated in a humidified 4% CO2 […] atmosphere for one hour to permit viral adsorption. Following virus adsorption, the cell sheet was overlayed with 5 ml of MEM(E) with 5% serum plus 0.5% methocel (4000 CPS) and incubated an additional two to three days. Cells were fixed and stained with 0.1% crystal violet in 20% methanol and macroscopic plaques enumerated.
Plaque reduction experiments were HSV-1 were performed using monolayer cultures of BSC-1 cells. The assay was performed exactly as described above except that the 0.2 ml virus suspension contained approximately 100 p.f.u. of HSV-1. Compounds to be tested were dissolved in the overlay medium at concentrations usually ranging from 0.1 to 100 μM in half-or-one logarithm10 dilutions. Titer reduction assays were performed by planting KB cells in 25 cm^2 plastic tissue culture flasks 10 to 24 hours prior to infection. At the onset of experiments, logarithmically growing replicate monolayer cultures were 60 to 80% confluent and contained 2.5 to 4.5×10^6 cells/flask. Medium was decanted and the cultures were infected with 2 to 10 p.f.u. of HSV-1 per cell. Virus was contained in 1.0 ml of VGM supplemented with 5% fetal bovine serum. After a 1 hour adsorption period at […], the cell sheet was rinsed twice with 2 ml of VGM without serum to remove unadsorbed virus and 5 ml of VGM containing drugs at three to five selected concentrations added in duplicate. Following an 18- to 22-hour incubation at 37° C., infected monolayers were treated with EDTA-trypsin to suspend the cells; aliquots were removed, subjected to three cycles of freezing and thawing, and stored at -76° C. for subsequent virus assay. Virus was titered on BSC-1 cells as described above.
as §4

[3] = Visual cytotoxicity scoring in HFF cells; assay type: cell-based; conditions: human, Table 1, at time of HCMV plaque enumeration, read-out: 50% Inhibitory Concentration Cytotoxicity HFF (visual)
From the text: (§6) Cytotoxicity produced in HFF and BSC-1 cells was estimated by visual scoring of cells not affected by virus infection in the HCMV and HSV-1 plaque reduction assays. Cytopathology was estimated at 35- and 60-fold magnification and scored on a zero to four plus basis. Wells were scored on the day of staining.
as §4

[4] = Visual cytotoxicity scoring in BSC-1 cells; assay type: cell-based; conditions: african green monkey, Table 1, at time of HSV-1 plaque enumeration, read-out: 50% Inhibitory Concentration Cytotoxicity BSC (visual)
From the text: as §6, §4

in vitro = assay type: cell-based, human; conditions: human, kb cells
Procedure: (§7) KB or HFF cells were planted using a Costar Transplate-96 (Costar, Cambridge, Mass.) in Costar 96-well cluster dishes at a concentration of 10,000 to 12,000 cells per well. Wells were suspended in 200 μl of medium [MDM(H) plus 0.7 gm/liter NaCHO3 supplemented with 10% calf serum] per well. After incubation of 16 to 24 hours at 37° C. in a humidified atmosphere of 4% CO2 in air, […] of medium was removed per well. One-hundred μl of medium with or without compounds in twice their final concentrations was added to each well using a Titertek Multichannel Pipette. Final concentrations of compounds ranged from 0.1 to 320 μM. Fifty μl of medium containing radioactive precursors also was added to each well to give a final concentration to 1 to 3 μCi/ml of labeled precursor. [^3 H]Thd was diluted with unlabeled dThd to give a final concentration of 3 or 6 μM.
(§8) Logarithmic cell growth occurred during this time with continual uptake of labeled precursors. At the end of the incubation period, cells were individually harvested from each well using a Skatron Cell harvester (Skatronh, Inc., Sterling, Va.). Cultures for individual wells were harvested onto filter paper and washed free of unincorporated label with nine sequential washes with 5% trichloroacetic acid, nine washes with water, and nine with ethanol using the Skatron unit. Filters were dried, circles from individual cultures were punched from the filter mat and placed into mini-vials. Liquid scintillation solution was added, and radioactivity determined in a Beckman model LS8100 liquid scintillation spectrometer. All samples were counted for 2.0 minutes each, with three rounds of counting. Counts per minute were determined following the application of statistical methods to eliminate count rates which fell outside distribution limits defined by Chauvenet's rejection criterion.
(§9) All analyses were performed in triplicate. That is, three culture wells were used per time point, radioactive precursor, and drug concentration in all experiments. Results from triplicate assays were converted to percent of control and plotted as log dose-response curves from which 50% inhibitor (I50) concentrations were interpolated. Three concentrations of vidarabine were included on all plates as a positive control.
as §4

KB cells [5] = assay: cells; assay type: cell-based, human; conditions: Homo sapiens; [3H]dThd incorporation, KB cells; read-out: I50 on [3H]dThd incorporation
Procedure: as §7, §8, §9, §4

HCMV [6] = assay: HCMV titer, plaque or yield reduction; assay type: cell-based, human cytomegalovirus (Towne strain) in HFF cells
From the text: as §1, §2, §3, §5, §4

[7] = Growth of KB cells (population doubling times); assay type: cell-based, human; conditions: human, kb cells; 100 μM; read-out: reduction of KB cell growth rate
Procedure: (§10) Population doubling times and cell viability were measured in uninfected HFF and/or KB cells. Cells were planted in replicate 6-well plastic tissue culture dishes or in 25 cm^2 flasks as described above in part 1. Following an incubation period during which cells attached to the substrate, medium was decanted, the cell sheet rinsed once with HBS, and fresh medium added. The medium consisted of MEM(E) with 1.1 gm NaHCO3 /liter and 10% fetal bovine or calf serum plus appropriate log or half-log concentrations of drug. After additional periods of incubation from 1 to 72 hours at 37° C., cells were harvested by means of 0.05% trypsin plus 0.02% EDTA in a HEPES-buffered salt solution. Cells were enumerated using either a Coulter counter or a hemocytometer and viability determining using trypsan blue dye exclusion.
(§11) In more extensive cytotoxicity testing, the halogenated compounds were tested for effects on the growth of KB cells. Populations doubling times were calculated from the logarithmic portions of growth curves and were as follows: […]

KB cells [8] = assay: Growth of KB cells (population doubling times); assay type: cell-based, human
Procedure: as §10, §11

viruses = conditions: cited from earlier work

SMILES: NC(=S)c1cn(COCCO)c2ncnc(N)c12 [UMJD 229, 4-Amino-7-(2-hydroxyethoxymethyl)pyrrolo[2,3-d]pyrimidine-5-thiocarboxamide]
- IC50 (HCMV [1]): 11 µM
- IC90 (HCMV [2]): 80 µM
- IC50 (HSV-1): > 100 µM
- CC50 [3]: 100 µM
- CC50 [4]: > 100 µM
- CC50 (in vitro): > 100 µM
- IC50 (KB cells [5]): 10 µM
- activity against HCMV (in words) (HCMV [6]): active

SMILES: NC(=S)c1cn(COC(CO)CO)c2ncnc(N)c12 [UMJD 239, 4-Amino-7-[(1,3-dihydroxy-2-propoxy)methyl]pyrrolo[2,3-d]-pyrimidine-5-thiocarboxamide]
- IC50 (HCMV [1]): 8 µM
- IC90 (HCMV [2]): 25 µM
- IC50 (HSV-1): > 100 µM
- CC50 [3]: > 100 µM
- CC50 [4]: > 100 µM
- CC50 (in vitro): > 100 µM
- IC50 (KB cells [5]): 28 µM

SMILES: OCC(CO)OCn1cc(Cl)c2c(NO)ncnc21 [UMJD 328, 4-hydroxylamino-5-chloro-7-[(1,3-dihydroxy-2-propoxy)methyl]pyrrolo[2,3-d]pyrimidine]
- IC50 (HCMV [1]): 56 µM
- IC90 (HCMV [2]): 24 µM
- CC50 [3]: > 100 µM
- activity against HCMV (in words) (HCMV [6]): active and nearly as potent as the 4-amino analogs

SMILES: OCC(CO)OCn1cc(I)c2c(NO)ncnc21 [UMJD 329, 4-hydroxylamino-5-iodo-7-[(1,3-dihydroxy-2-propoxy)methyl]pyrrolo[2,3-d]pyrimidine]
- IC50 (HCMV [1]): 18 µM
- IC90 (HCMV [2]): 3.2 µM
- CC50 [3]: > 100 µM
- activity against HCMV (in words) (HCMV [6]): active and nearly as potent as the 4-amino analogs
- inhibition at 100 µM [7]: > 50%
- KB cell growth rate (in words) (KB cells [8]; 10 μM): nearly control rates
- effect on KB cell growth (in words) (KB cells [8]; comparison with UMJD 102 / UMJD 183): considerably lesser effects on cell growth

SMILES: Nc1ncnc2c1c(I)cn2COC(CO)CO [UMJD 330, 4-amino-5-iodo-7-[(1,3-dihydroxy-2-propoxy)methyl]-pyrrolo[2,3-d]pyrimidine]
- IC50 (HCMV [1]): 3.1 µM
- log reduction at 100 µM (HCMV [2]; FIG. 2, 10-fold higher concentration than UMJD 183 (10 μM)): 5
- IC90 (HCMV [2]): 0.9 µM
- CC50 [3]: > 100 µM

SMILES: NC(=O)c1cn([C@@H]2O[C@H](CO)[C@@H](O)[C@H]2O)c2ncnc(N)c12 [sangivamycin]
- antiviral activity previously reported (viruses): Broad spectrum antiviral activity

SMILES: N#Cc1cn([C@@H]2O[C@H](CO)[C@@H](O)[C@H]2O)c2ncnc(N)c12 [toyocamycin]
- antiviral activity previously reported (viruses): Broad spectrum antiviral activity

SMILES: Nc1ncnc2c1ccn2[C@@H]1O[C@H](CO)[C@@H](O)[C@H]1O [tubercidin]
- antiviral activity previously reported (viruses): Broad spectrum antiviral activity

From US4968686A, “Acyclic pyrrolo [2,3-d]pyrimidine analogs as antiviral agents” (The Regents of The University of Michigan, priority 1989, dated 1990)
